Molecules are shown by their SMILES.

From patent publication KR20150001353A, “Fms 키나아제 저해 활성을 갖는 피리미딘 유도체” (한미약품 주식회사, priority 2013, dated 2015) come the findings set out here.

For assay [1], the target named is T1, recombinant human FMS kinase (재조합 인간 FMS 키나아제) (Homo sapiens, UniProt P07333).
T1 construct: purchased Invitrogen pv3249
Nature of the assay: FMS kinase inhibitory activity evaluation (Test Example 1; FRET, Z'-Lyte kinase assay-Tyr 1 peptide kit). It counts as biochemical. The conditions noted are these: 0.3 µg/mL FMS, 150 μM ATP, room temperature, 1 h.

The subject of assay [2] is M-NFS-60 cell line (M-NFS-60 세포주). Nature of the assay: M-NFS-60 cell line evaluation (Test Example 2; MTT, CellTiter 96 Assay). It counts as cell-based. The conditions noted are these: recombinant M-CSF 20 ng/mL, 5% FBS, compound 10 μM to 0.1 nM, 590 nm.

T1 sequence (P07333 20-972): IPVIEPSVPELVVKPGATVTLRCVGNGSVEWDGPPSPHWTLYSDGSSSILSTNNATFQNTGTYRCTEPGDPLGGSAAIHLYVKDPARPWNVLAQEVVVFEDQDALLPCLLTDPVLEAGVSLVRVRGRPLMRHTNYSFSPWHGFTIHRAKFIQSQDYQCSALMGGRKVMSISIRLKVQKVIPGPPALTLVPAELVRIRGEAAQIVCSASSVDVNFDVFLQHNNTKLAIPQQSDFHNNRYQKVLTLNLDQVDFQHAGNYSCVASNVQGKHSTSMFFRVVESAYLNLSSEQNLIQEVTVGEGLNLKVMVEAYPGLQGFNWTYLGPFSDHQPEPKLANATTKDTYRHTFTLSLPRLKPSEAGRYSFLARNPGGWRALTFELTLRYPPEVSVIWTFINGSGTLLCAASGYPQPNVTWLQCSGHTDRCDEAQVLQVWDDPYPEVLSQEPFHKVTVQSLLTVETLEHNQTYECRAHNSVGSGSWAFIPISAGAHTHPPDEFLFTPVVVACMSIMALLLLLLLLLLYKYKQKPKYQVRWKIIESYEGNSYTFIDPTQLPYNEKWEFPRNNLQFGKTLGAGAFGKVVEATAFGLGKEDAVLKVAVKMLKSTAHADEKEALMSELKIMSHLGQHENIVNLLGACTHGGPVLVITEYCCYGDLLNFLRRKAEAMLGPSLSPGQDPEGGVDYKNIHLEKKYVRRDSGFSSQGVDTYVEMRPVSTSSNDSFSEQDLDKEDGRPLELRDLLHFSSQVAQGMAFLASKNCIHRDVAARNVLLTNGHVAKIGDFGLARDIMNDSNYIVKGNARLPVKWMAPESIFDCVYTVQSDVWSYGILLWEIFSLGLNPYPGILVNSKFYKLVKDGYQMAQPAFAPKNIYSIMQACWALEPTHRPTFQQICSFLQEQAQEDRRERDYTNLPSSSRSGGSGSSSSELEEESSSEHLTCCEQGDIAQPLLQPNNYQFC

As usually defined, the IC50 is the concentration that inhibits the measured activity by half. On to `COc1ccc(CNc2cc(N(C)C(=O)Nc3cccc4c3c(C)nn4Cc3cccc(F)n3)ncn2)c(OC)c1` [실시예 9, 1-(6-(2,4-디메톡시벤질아미노)피리미딘-4-일)-3-(1-((6-플루오로피리딘-2-일)메틸)-3-메틸-1H-인다졸-4-일)-1-메틸우레아], for which the IC50 in assay [1] is 65 nM.

On to `COc1cccc(Cn2nc(C)c3c(NC(=O)N(C)c4cc(N)ncn4)cccc32)c1` [실시예 18, 1-(6-아미노피리미딘-4-일)-3-(1-(3-메톡시벤질)-3-메틸-1H-인다졸-4-일)-1-메틸우레아], for which the results for the IC50 in assay [1] and in assay [2] were 14 nM and 201 nM, respectively.
